Results from ChEMBL document CHEMBL1201862, “PubChem BioAssay data set” (2004).
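Following 48 hours of exposure in 96-well plates, responses at five concentrations were used to interpolate endpoints linearly. Abbreviation: GI50, concentration required for 50% inhibition of growth.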 The source made the active and inactive calls. No stated cut-off is given here; in the data, active = GI50 up to about 1.1 µM and inactive = higher.

Experiments:
Assay in all cases: growth of human tumour cells (NCI), 48 h
RXF 393 = tested on: RXF 393
SK-MEL-2 = tested on: SK-MEL-2
HOP-62 = tested on: HOP-62
T47D = tested on: T47D
UACC-257 = tested on: UACC-257
SK-MEL-5 = tested on: SK-MEL-5
NCI-H460 = tested on: NCI-H460
TK-10 = tested on: TK-10
A549 = tested on: A549
SF-539 = tested on: SF-539
DU-145 = tested on: DU-145
RPMI-8226 = tested on: RPMI-8226
U-251 = tested on: U-251
OVCAR-3 = tested on: OVCAR-3
MDA-MB-231 = tested on: MDA-MB-231
MDA-MB-435 = tested on: MDA-MB-435
SF-295 = tested on: SF-295
SR = tested on: SR
OVCAR-5 = tested on: OVCAR-5
LOX IMVI = tested on: LOX IMVI

SMILES	GI50 (RXF 393)	GI50 (SK-MEL-2)	GI50 (HOP-62)	GI50 (T47D)	GI50 (UACC-257)	GI50 (SK-MEL-5)	GI50 (NCI-H460)	GI50 (TK-10)	GI50 (A549)	GI50 (SF-539)	GI50 (DU-145)	GI50 (RPMI-8226)	GI50 (U-251)	GI50 (OVCAR-3)	GI50 (MDA-MB-231)	GI50 (MDA-MB-435)	GI50 (SF-295)	GI50 (SR)	GI50 (OVCAR-5)	GI50 (LOX IMVI)
Oc1cc(-c2cccc(OC(F)(F)F)c2)nc2cc3c(cc12)OCO3	0.166 µM (active)	0.169 µM (active)	0.119 µM (active)	55.7 µM (inactive)	1.68 µM (inactive)	0.0508 µM (active)	0.0877 µM (active)	5.19 µM (inactive)	0.182 µM (active)	0.084 µM (active)	0.0459 µM (active)	0.0508 µM (active)	0.0658 µM (active)	0.0547 µM (active)	0.144 µM (active)	< 0.0156 µM (active)	0.0845 µM (active)			
O=C(CC(C(=O)O)N1CCOCC1)c1ccccc1 (centres undefined)	18.4 µM (inactive)	19.1 µM (inactive)	27.4 µM (inactive)	> 100 µM (inactive)	13.4 µM (inactive)	19.6 µM (inactive)	19.5 µM (inactive)	15.9 µM (inactive)	57.8 µM (inactive)	22.6 µM (inactive)	23.6 µM (inactive)	12.7 µM (inactive)	16.7 µM (inactive)	20 µM (inactive)	15.3 µM (inactive)		41.2 µM (inactive)	16.4 µM (inactive)	22.3 µM (inactive)	17.5 µM (inactive)
COc1cc(O)c2c(=O)c3cccc(C)c3[nH]c2c1	> 10 µM (inactive)	> 10 µM (inactive)	> 10 µM (inactive)	> 10 µM (inactive)	> 10 µM (inactive)	> 10 µM (inactive)	> 10 µM (inactive)	> 10 µM (inactive)	> 10 µM (inactive)	> 10 µM (inactive)	> 10 µM (inactive)	> 10 µM (inactive)	> 10 µM (inactive)	9.31 µM (inactive)	> 10 µM (inactive)	> 10 µM (inactive)	> 10 µM (inactive)		> 10 µM (inactive)	8.75 µM (inactive)
O=C1CCCCCCCCCCC1CN1CCOCC1 (centres undefined)	> 100 µM (inactive)		> 100 µM (inactive)	> 100 µM (inactive)	> 100 µM (inactive)	13.9 µM (inactive)		> 100 µM (inactive)	> 100 µM (inactive)	> 100 µM (inactive)	> 100 µM (inactive)	> 100 µM (inactive)	> 100 µM (inactive)	> 100 µM (inactive)	> 100 µM (inactive)	> 100 µM (inactive)	> 100 µM (inactive)	> 100 µM (inactive)	> 100 µM (inactive)	
Nc1nc2c(ncn2Cc2ccccc2CO)c(=O)[nH]1		> 100 µM (inactive)	> 100 µM (inactive)	> 100 µM (inactive)	> 100 µM (inactive)	> 100 µM (inactive)	> 100 µM (inactive)	> 100 µM (inactive)	> 100 µM (inactive)	> 100 µM (inactive)	> 100 µM (inactive)	> 100 µM (inactive)	> 100 µM (inactive)	> 100 µM (inactive)	> 100 µM (inactive)	> 100 µM (inactive)	> 100 µM (inactive)	> 100 µM (inactive)	> 100 µM (inactive)	> 100 µM (inactive)
O=C(NNS(=O)(=O)c1ccc(Br)cc1)c1ccc(Cl)cc1NC(=O)C12CC3CC(CC(C3)C1)C2	15.7 µM (inactive)	11.8 µM (inactive)	19.8 µM (inactive)	15.2 µM (inactive)	13.5 µM (inactive)	10.9 µM (inactive)	8.34 µM (inactive)	12.5 µM (inactive)	8.15 µM (inactive)	17.3 µM (inactive)	14.5 µM (inactive)	4.49 µM (inactive)	10.8 µM (inactive)	11.6 µM (inactive)		12.4 µM (inactive)	13.9 µM (inactive)	12.4 µM (inactive)	18.2 µM (inactive)	14.1 µM (inactive)
C=C1CC(Cn2cc(C)c(=O)[nH]c2=O)(c2ccc(Cl)cc2)OC1=O (centres undefined)		2.12 µM (inactive)	15.8 µM (inactive)	2.08 µM (inactive)	1.4 µM (inactive)	2.67 µM (inactive)	15.8 µM (inactive)	1.68 µM (inactive)	16.6 µM (inactive)	10.9 µM (inactive)	4.65 µM (inactive)	0.414 µM (active)	16.2 µM (inactive)	3.6 µM (inactive)	3.05 µM (inactive)	3.85 µM (inactive)	9.64 µM (inactive)	1.17 µM (inactive)	14.9 µM (inactive)	1.56 µM (inactive)
